Values after ≈ are worked out from the molar mass of the structure shown.
Each compound was assayed on S. aureus (assay: Minimum inhibitory concentrations (MICs) for S. aureus of exemplary compounds (Table 2)). Details: Staphylococcus aureus, minimum inhibitory concentrations for S. aureus; read-out: MICs.
Format: cell-based
How it was run: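 Growth of S. aureus in media with or without compound, by broth microdilution in microtiter trays following NCCLS M7-A5 guidelines. Values are MICs in μg/mL.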

| MIC [µg/mL] | Compound |
| --- | --- |
| 8 (≈ 17.6 µM) | CC(=O)NC[C@H]1CN(c2ccc(-c3ccc(CNC(=O)[C@@H]4CCCN4)cc3)c(F)c2)C(=O)O1 [Compound 4309, Pyrrolidine-2-(S)-carboxylic acid {4′-[5-(S)-(acetylamino-methyl)-2-oxo-oxazolidin-3-yl]-2′-fluoro-biphenyl-4-ylmethyl}-amide] |
| 0.25 (≈ 0.467 µM) | CC(=O)NC[C@H]1CN(c2ccc(-c3ccc(CNC(=O)/C=C/c4c(C)[nH]c(=O)[nH]c4=O)cc3)c(F)c2)C(=O)O1 [Compound 4001, N-{4′-[5-(S)-(Acetylamino-methyl)-2-oxo-oxazolidin-3-yl]-2′-fluoro-biphenyl-4-ylmethyl}-3-(6-methyl-2,4-dioxo-1,2,3,4-tetrahydro-pyrimidin-5-yl)-acrylamide] |
| 2 | CC(=O)NC[C@H]1CN(c2ccc(-c3ccc(CNC(C)c4cnn[nH]4)cc3)c(F)c2)C(=O)O1 (mixture of isomers) [Compound 4278, N-[3-(2-Fluoro-4′-{[1-(R/S)-(3H-[1,2,3]triazol-4-yl)-ethylamino]-methyl}-biphenyl-4-yl)-2-oxo-oxazolidin-5-(S)-ylmethyl]-acetamide] |
| 4 | CC(=O)NC[C@H]1CN(c2ccc(-c3ccc(CNCC4CCNC4)cc3)c(F)c2)C(=O)O1 (mixture of isomers) [Compound 4153, N-[3-(2-Fluoro-4′-{[(pyrrolidin-3-(R/S)-ylmethyl)-amino]-methyl}-biphenyl-4-yl)-2-oxo-oxazolidin-5-(S)-ylmethyl]-acetamide] |
| 1 (≈ 2.15 µM) | CC(=O)NC[C@H]1CN(c2ccc(-c3ccc(CNC(=O)c4cccn4C)cc3)c(F)c2)C(=O)O1 [Compound 4010, 1-Methyl-1H-pyrrole-2-carboxylic acid {4′-[5-(S)-(acetylamino-methyl)-2-oxo-oxazolidin-3-yl]-2′-fluoro-biphenyl-4-ylmethyl}-amide] |
| 64 (≈ 141 µM) | CC(=O)NC[C@H]1CN(c2ccc(-c3ccc(CNCC4CCNCC4)cc3)c(F)c2)C(=O)O1 [Compound 4186, N-[3-(2-Fluoro-4′-{[(piperidin-4-ylmethyl)-amino]-methyl}-biphenyl-4-yl)-2-oxo-oxazolidin-5-(S)-ylmethyl]-acetamide] |
| 1 (≈ 2.21 µM) | CC(=O)NC[C@H]1CN(c2ccc(-c3ccc(Cn4cc(C(=O)O)cn4)cc3)c(F)c2)C(=O)O1 [Compound 1051, 1-{4′-[5-(S)-(Acetylamino-methyl)-2-oxo-oxazolidin-3-yl]-2′-fluoro-biphenyl-4-ylmethyl}-1H-pyrazole-4-carboxylic acid] |
| 4 (≈ 9.72 µM) | CC(=O)NC[C@H]1CN(c2ccc(-c3ccc(CNCC4CC4)cc3)c(F)c2)C(=O)O1 [Compound 4300, N-(3-{4′-[(Cyclopropylmethyl-amino)-methyl]-2-fluoro-biphenyl-4-yl}-2-oxo-oxazolidin-5-(S)-ylmethyl)-acetamide] |
| 0.25 (≈ 0.552 µM) | CC(=O)NC[C@H]1CN(c2ccc(-c3ccc(CNCc4cnnn4C)cc3)c(F)c2)C(=O)O1 [Compound 4272, N-[3-(2-Fluoro-4′-{[(3-methyl-3H-[1,2,3]triazol-4-ylmethyl)-amino]-methyl}-biphenyl-4-yl)-2-oxo-oxazolidin-5-(S)-ylmethyl]-acetamide] |
| 2 (≈ 4.42 µM) | CC(=O)NC[C@H]1CN(c2ccc(-c3ccc(CNC(=O)[C@@H]4C=CCN4)cc3)c(F)c2)C(=O)O1 [Compound 4306, 2,5-Dihydro-1H-pyrrole-2-(S)-carboxylic acid {4′-[5-(S)-(acetylamino-methyl)-2-oxo-oxazolidin-3-yl]-2′-fluoro-biphenyl-4-ylmethyl}-amide] |
| 2 (≈ 4.54 µM) | CC(=O)NC[C@H]1CN(c2ccc(-c3ccc(CNC(=O)C4CCN4)cc3)c(F)c2)C(=O)O1 (stereo partly drawn) [Compound 4296, Azetidine-2-carboxylic acid {4′-[5-(S)-(acetylamino-methyl)-2-oxo-oxazolidin-3-yl]-2′-fluoro-biphenyl-4-ylmethyl}-amide] |
| 2 (≈ 4.56 µM) | CC(=O)NC[C@H]1CN(c2ccc(-c3ccc(CNCc4cocn4)cc3)c(F)c2)C(=O)O1 [Compound 4234, N-[3-(2-Fluoro-4′-{[(oxazol-4-ylmethyl)-amino]-methyl}-biphenyl-4-yl)-2-oxo-oxazolidin-5-(S)-ylmethyl]-acetamide] |
| 0.5 (≈ 1.22 µM) | CC(=O)NC[C@H]1CN(c2ccc(-c3ccc(Cn4ccnc4)cc3)c(F)c2)C(=O)O1 [Compound 1008, N-[3-(2-Fluoro-4′-imidazol-1-ylmethyl-biphenyl-4-yl)-2-oxo-oxazolidin-5-(S)-ylmethyl]-acetamide] |
| 1 (≈ 2.37 µM) | CC(=O)NC[C@H]1CN(c2ccc(-c3ccc(Cn4cncc4C)cc3)c(F)c2)C(=O)O1 [Compound 1067, N-{3-[2-Fluoro-4′-(5-methyl-imidazol-1-ylmethyl)-biphenyl-4-yl]-2-oxo-oxazolidin-5-(S)-ylmethyl}-acetamide] |
| 32 (≈ 64.7 µM) | CC(=O)NC[C@H]1CN(c2ccc(-c3ccc(CNC(=O)Nc4cccc(F)c4)cc3)c(F)c2)C(=O)O1 [Compound 5013, N-(3-{2-Fluoro-4′-[3-(3-fluoro-phenyl)-ureidomethyl]-biphenyl-4-yl}-2-oxo-oxazolidin-5-(S)-ylmethyl)-acetamide] |
| 4 (≈ 8.57 µM) | CC(=O)NC[C@H]1CN(c2ccc(-c3ccc(CNCCCn4ccnn4)cc3)c(F)c2)C(=O)O1 [Compound 4264, N-(3-{2-Fluoro-4′-[(3-[1,2,3]triazol-1-yl-propylamino)-methyl]-biphenyl-4-yl}-2-oxo-oxazolidin-5-(S)-ylmethyl)-acetamide] |
| 1 (≈ 2.27 µM) | CC(=O)NC[C@H]1CN(c2ccc(-c3ccc(CSc4ncc[nH]4)cc3)c(F)c2)C(=O)O1 [Compound 2032, N-{3-[2-Fluoro-4′-(1H-imidazol-2-ylsulfanylmethyl)-biphenyl-4-yl]-2-oxo-oxazolidin-5-(S)-ylmethyl}-acetamide] |

Continued, compound first:

| Compound | MIC [µg/mL] |
| --- | --- |
| CC(=O)NC[C@H]1CN(c2ccc(-c3ccc(CNCc4c(-c5ccccc5)noc4C)cc3)c(F)c2)C(=O)O1 [Compound 4104, N-[3-(2-Fluoro-4′-{[(5-methyl-3-phenyl-isoxazol-4-ylmethyl)-amino]-methyl}-biphenyl-4-yl)-2-oxo-oxazolidin-5-(S)-ylmethyl]-acetamide] | 0.25 (≈ 0.473 µM) |
| CC(=O)NC[C@H]1CN(c2ccc(-c3ccc(CNCCc4ccc(S(N)(=O)=O)cc4)cc3)c(F)c2)C(=O)O1 [Compound 4094, N-[3-(2-Fluoro-4′-{[2-(4-sulfamoyl-phenyl)-ethylamino]-methyl}-biphenyl-4-yl)-2-oxo-oxazolidin-5-(S)-ylmethyl]-acetamide] | 2 (≈ 3.7 µM) |
| CC(=O)NC[C@H]1CN(c2ccc(-c3ccc(CNCc4ccncc4)c(F)c3)c(F)c2)C(=O)O1 [Compound 4155, N-[3-(2,3′-Difluoro-4′-{[(pyridin-4-ylmethyl)-amino]-methyl}-biphenyl-4-yl)-2-oxo-oxazolidin-5-(S)-ylmethyl]-acetamide] | 2 (≈ 4.29 µM) |
| CC(=O)NC[C@H]1CN(c2ccc(-c3ccc(CNCC(O)c4ccc(F)cc4)cc3)c(F)c2)C(=O)O1 (mixture of isomers) [Compound 4275, N-[3-(2-Fluoro-4′-{[2-(4-fluoro-phenyl)-2-(R/S)-hydroxy-ethylamino]-methyl}-biphenyl-4-yl)-2-oxo-oxazolidin-5-(S)-ylmethyl]-acetamide] | 0.5 |
| CC(=O)NC[C@H]1CN(c2ccc(-c3ccc(CNCc4cncc5ccccc45)cc3)c(F)c2)C(=O)O1 [Compound 4060, N-[3-(2-Fluoro-4′-{[(isoquinolin-4-ylmethyl)-amino]-methyl}-biphenyl-4-yl)-2-oxo-oxazolidin-5-(S)-ylmethyl]-acetamide] | 2 (≈ 4.01 µM) |
| CC(=O)NC[C@H]1CN(c2ccc(-c3ccc([C@H](CO)N4CCCC(F)(F)C4)cc3)c(F)c2)C(=O)O1 [Compound 1074, N-(3-{4′-[1-(R)-(3,3-Difluoro-piperidin-1-yl)-2-hydroxy-ethyl]-2-fluoro-biphenyl-4-yl}-2-oxo-oxazolidin-5-(S)-ylmethyl)-acetamide] | 4 (≈ 8.14 µM) |
| CSc1nnnn1Cc1ccc(-c2ccc(N3C[C@H](CNC(C)=O)OC3=O)cc2F)cc1 [Compound 1079, N-{3-[2-Fluoro-4′-(5-methylsulfanyl-tetrazol-1-ylmethyl)-biphenyl-4-yl]-2-oxo-oxazolidin-5-(S)-ylmethyl}-acetamide] | 2 (≈ 4.38 µM) |
| CC(=O)NC[C@H]1CN(c2ccc(-c3cccc(CNCc4csnn4)c3)c(F)c2)C(=O)O1 [Compound 4166, N-[3-(2-Fluoro-3′-{[([1,2,3]thiadiazol-4-ylmethyl)-amino]-methyl}-biphenyl-4-yl)-2-oxo-oxazolidin-5-(S)-ylmethyl]-acetamide] | 8 (≈ 17.6 µM) |
| CCc1ccc(CNCc2ccc(-c3ccc(N4C[C@H](CNC(C)=O)OC4=O)cc3F)cc2)s1 [Compound 4162, N-[3-(4′-{[(5-Ethyl-thiophen-2-ylmethyl)-amino]-methyl}-2-fluoro-biphenyl-4-yl)-2-oxo-oxazolidin-5-(S)-ylmethyl]-acetamide] | 2 (≈ 4.15 µM) |
| O=C1O[C@@H](Cn2ccnn2)CN1c1ccc(-c2ccc(Cn3cccn3)cc2)c(F)c1 [Compound 1085, 3-(2-Fluoro-4′-pyrazol-1-ylmethyl-biphenyl-4-yl)-5-(R)-[1,2,3]triazol-1-ylmethyl-oxazolidin-2-one] | 0.5 (≈ 1.19 µM) |
| CC(=O)NC[C@H]1CN(c2ccc(-c3ccc([C@H](CO)NCc4ccnc5ccccc45)cc3)c(F)c2)C(=O)O1 [Compound 4031, N-[3-(2-Fluoro-4′-{2-hydroxy-1-(R)-[(quinolin-4-ylmethyl)-amino]-ethyl}-biphenyl-4-yl)-2-oxo-oxazolidin-5-(S)-ylmethyl]-acetamide] | 2 (≈ 3.78 µM) |
| CC(=O)NC[C@H]1CN(c2ccc(-c3ccc(CNCc4ccc(S(N)(=O)=O)cc4)cc3)c(F)c2)C(=O)O1 [Compound 4093, N-(3-{2-Fluoro-4′-[(4-sulfamoyl-benzylamino)-methyl]-biphenyl-4-yl}-2-oxo-oxazolidin-5-(S)-ylmethyl)-acetamide] | 8 (≈ 15.2 µM) |
| CC(=O)NC[C@H]1CN(c2ccc(-c3ccc(Cn4ccnn4)nc3)c(F)c2)C(=O)O1 [Compound 1036, N-{3-[3-Fluoro-4-(6-[1,2,3]triazol-1-ylmethyl-pyridin-3-yl)-phenyl]-2-oxo-oxazolidin-5-(S)-ylmethyl}-acetamide] | 1 (≈ 2.44 µM) |

From patent US10471046B2, “Method for treating, preventing, or reducing the risk of skin infection” (Melinta Subsidiary Corp., priority 2014, dated 2019)
